The assay deals with T1, LPA2R (Homo sapiens, UniProt Q9HBW0).
T1 construct: expressed in transfected cells; host or cells: U2OS
Briefly: LPA2R-Calciumflux assay (FLIPR, intracellular calcium mobilisation after LPA). It counts as cell-based. The note with it: U2OS cells recombinant expressing LPA2R; antagonism of LPA-induced calcium flux; racemate of the two trans enantiomers unless marked enantiomer. From the text:
The assay detects intra cellular calcium which is generated by cells upon activation of the LPA2 receptor by its ligand LPA. This transient calcium mobilization can be monitored using a commercial calcium detection kit (e.g. from Molecular Devices). The main component of such a kit is a dye, which becomes fluorescent when calcium is present—a transient fluorescence signal after addition of a ligand to a test well are the result. Readers like the FLIPR (Molecular Devices) can be used to monitor such transient “Ca-flux” signals.
The signals are calculated according to peak maximum minus base line.
Compounds which are antagonists of LPA lead to a decreased mobilisation of intracellular calcium and thus to a lower signal. The assay is performed in microplates (384 wells per plate).
LPA2R-Calciumflux Assay Protocol
The assay is run according to the following procedure:
50 uL seed cells (10000 cells/well in DMEM buffer)
• Incubate 24 h at 37° C., 10% CO2 • aspirate medium 50 uL add calcium dye 1×HBSS/HEPES buffer • incubate 1 h at 37° C. (“loading”) • equilibrate 10 min at RT 5 uL add compounds in HEPES buffer • shake 10 sec. at 1000 rpm • incubate 15 min at RT 20 uL add LPA (in the FLIPR Tetra) in Krebs-buffer/BSA & measurement
The cells are seeded in DMEM buffer (DMEM, 10% FCS, 10 mM HEPES, 1% Pen/Strep).
Dye loading is done in HBSS/HEPES buffer (100 mL 10×HBSS+20 mL 1M HEPES+880 mL water, pH 7.4)
The LPA is added in Krebs/BSA buffer (120 mM NaCl, 5 mM KCl, 0.62 mM MgSO4, 1.8 mM CaCl2, 10 mM HEPES, 6 mM D(+)-Glucose, 0.2% BSA, pH 7.4).
The compounds are pre-diluted in HEPES buffer (20 mM, pH 7.4), whereby the final DMSO content in the assay is kept at 1%. The compounds are pre-diluted in order to generate dose response series on the microplates. The dose response series consist of 10 concentrations for each compound from 30 uM final to 1 nM final. From all compound wells the resulting signals are referred to control wells (located on each plate besides the compound wells) in terms of % activity.
From these % activity values—along with the corresponding compound concentrations—IC50 values are fitted for each compound using standard fitting programs such as Graphpad Prism. Here the method “log(inhibitor) vs. response—Variable slope” is used.
Background: Calcium assays in cells follow changes in intracellular calcium, usually with a dye or a luminescent sensor.

This passage reports IC50 results from US8912202B2, “N-(benzimimdazol-2-yl)-cyclopropane carboxamides as lysophosphatidic acid antagonists” (Merck Patent GmbH, priority 2011, dated 2014).

SMILES strings stand for the structures. Bounds are passed on as bounds.

T1 sequence (Q9HBW0 whole entry): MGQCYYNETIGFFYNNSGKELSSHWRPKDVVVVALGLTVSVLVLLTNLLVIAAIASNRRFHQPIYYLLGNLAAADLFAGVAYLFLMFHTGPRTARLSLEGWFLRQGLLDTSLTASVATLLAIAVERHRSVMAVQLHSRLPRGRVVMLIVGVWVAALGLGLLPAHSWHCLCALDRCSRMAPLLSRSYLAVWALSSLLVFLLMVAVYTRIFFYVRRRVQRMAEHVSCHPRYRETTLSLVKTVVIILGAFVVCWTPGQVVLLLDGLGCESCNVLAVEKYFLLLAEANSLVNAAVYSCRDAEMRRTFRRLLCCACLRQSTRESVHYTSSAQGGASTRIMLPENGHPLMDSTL

Consider `O=C(Nc1nc2c(OCCN3CCCC3)cccc2[nH]1)C1CC1c1ccccc1` (single isomer, unassigned; enantiomer-2) [enantiomer-2-Phenyl-cyclopropane-carboxylic acid [4-(2-pyrrolidin-1-yl-ethoxy)-1H-benzoimidazol-2-yl]-amide], for which the IC50 (as a rule, the midpoint of a concentration-inhibition curve) is 100 to 1000 nM.
As for `O=C(Nc1nc2ccncc2[nH]1)C1CC1c1ccccc1` (racemic) [2-Phenyl-cyclopropane-carboxylic acid (3H-imidazo[4,5-c]pyridin-2-yl)-amide], the figure is more than 10000 nM; as for `CC1(C)C(C(=O)Nc2nc3ccccc3[nH]2)C1c1ccccc1` (racemic) [2,2-Dimethyl-3-phenyl-cyclopropane-carboxylic acid (1H-benzoimidazol-2-yl)-amide], more than 10000 nM; as for `O=C(Nc1nc2ccc(C(F)(F)F)cc2[nH]1)C1CC1c1ccccc1Cl` (racemic) [2-(2-Chloro-phenyl)-cyclopropane-carboxylic acid (6-trifluoromethyl-1H-benzoimidazol-2-yl)-amide], 10 to 100 nM.
As for `Cn1c(NC(=O)C2CC2c2ccccc2)nc2ccccc21` (racemic) [2-Phenyl-cyclopropane-carboxylic acid (1-methyl-1H-benzoimidazol-2-yl)-amide], the figure is more than 10000 nM.
As for `N#Cc1ccc2nc(NC(=O)C3CC3c3ccccc3)[nH]c2c1` (single isomer, unassigned; enantiomer-2) [drawing 72, enantiomer-2-Phenyl-cyclopropane-carboxylic acid (6-cyano-1H-benzoimidazol-2-yl)-amide], the figure is 1000 to 10000 nM.
Turning to `O=C(Nc1nc2ccccc2[nH]1)C1CC1c1ccccc1` (single isomer, unassigned; enantiomer-2) [drawing 59, enantiomer-2-Phenyl-cyclopropane-carboxylic acid (1H-benzoimidazol-2-yl)-amide], the IC50 is less than 10 nM.
Then `O=C(Nc1nc2cc(C(F)(F)F)ccc2[nH]1)C1CC1c1ccccc1` (racemic) [2-Phenyl-cyclopropane-carboxylic acid (6-trifluoromethyl-1H-benzoimidazol-2-yl)-amide], with 10 to 100 nM; and `CC(C)(C)c1ccc(C2CC2C(=O)Nc2nc3ccccc3[nH]2)cc1` (racemic) [2-(4-tert-Butyl-phenyl)-cyclopropane-carboxylic acid (1H-benzoimidazol-2-yl)-amide], with more than 10000 nM; and `O=C(Nc1nc2ccccc2[nH]1)C1CC1c1ccc(C(F)(F)F)cc1` (racemic) [2-(4-Trifluoromethyl-phenyl)-cyclopropane-carboxylic acid (1H-benzoimidazol-2-yl)-amide], with 1000 to 10000 nM.
Consider `O=C(Nc1nc2ccccc2[nH]1)C1CC1c1ccc(F)cc1` (racemic) [2-(4-Fluoro-phenyl)-cyclopropane-carboxylic acid (1H-benzoimidazol-2-yl)-amide], for which the IC50 lay within 10 to 100 nM.
Then `O=C(Nc1nc2c([N+](=O)[O-])cccc2[nH]1)C1CC1c1ccccc1` (racemic) [2-Phenyl-cyclopropane-carboxylic acid (4-nitro-1H-benzoimidazol-2-yl)-amide], with 10 to 100 nM.
With `O=C(Nc1nc2ccccc2[nH]1)C1CC1c1cccc(Cl)c1` (racemic) [2-(3-Chloro-phenyl)-cyclopropane-carboxylic acid (1H-benzoimidazol-2-yl)-amide], the IC50 was 100 to 1000 nM.
Then `Cc1ccc2nc(NC(=O)C3CC3c3ccccc3)[nH]c2c1` (racemic) [2-Phenyl-cyclopropane-carboxylic acid (6-methyl-1H-benzoimidazol-2-yl)-amide], with 100 to 1000 nM; and `O=C(Nc1nc2ccccc2[nH]1)C1CC1c1cccc(Cl)c1Cl` (racemic) [2-(2,3-Dichloro-phenyl)-cyclopropane-carboxylic acid (1H-benzoimidazol-2-yl)-amide], with 100 to 1000 nM.
Then `O=C(Nc1nc2ccccc2[nH]1)C1CC1c1ccccc1Cl` (single isomer, unassigned; enantiomer-2) [drawing 76, enantiomer-2-(2-Chloro-phenyl)-cyclopropane-carboxylic acid (1H-benzoimidazol-2-yl)-amide], with more than 10000 nM; and `CN(C)c1ccc(C2CC2C(=O)Nc2nc3ccccc3[nH]2)cc1` (racemic) [2-(4-Dimethylamino-phenyl)-cyclopropane-carboxylic acid (1H-benzoimidazol-2-yl)-amide], with 1000 to 10000 nM.
As for `CN(C)c1cccc(C2CC2C(=O)Nc2nc3ccccc3[nH]2)c1` (racemic) [2-(3-Dimethylamino-phenyl)-cyclopropane-carboxylic acid (1H-benzoimidazol-2-yl)-amide], the figure is 100 to 1000 nM; as for `O=C(Nc1nc2c(Cl)cc(Cl)cc2[nH]1)C1CC1c1ccccc1` (racemic) [2-Phenyl-cyclopropane-carboxylic acid (4,6-dichloro-1H-benzoimidazol-2-yl)-amide], 100 to 1000 nM.
Regarding `Cc1cc2nc(NC(=O)C3CC3c3ccccc3)[nH]c2cc1C` (racemic) [2-Phenyl-cyclopropane-carboxylic acid (5,6-dimethyl-1H-benzoimidazol-2-yl)-amide], the IC50 was in the range of 10 to 100 nM.
Then `O=C(Nc1nc2ccccc2[nH]1)C1CC1c1ccccc1F` (racemic) [2-(2-Fluoro-phenyl)-cyclopropane-carboxylic acid (1H-benzoimidazol-2-yl)-amide], with 100 to 1000 nM; and `O=C(Nc1nc2ccccc2[nH]1)C1CC1c1cccc(Br)c1` (racemic) [2-(3-Bromo-phenyl)-cyclopropane-carboxylic acid (1H-benzoimidazol-2-yl)-amide], with 10 to 100 nM; and `O=C(Nc1nc2cc(Cl)cnc2[nH]1)[C@@H]1C[C@H]1c1ccccc1` (single isomer, unassigned) [trans-2-Phenyl-cyclopropane-carboxylic acid (6-chloro-3H-imidazo[4,5-b]pyridin-2-yl)-amide], with 1000 to 10000 nM.
As for `CN(C(=O)C1CC1c1ccccc1)c1nc2ccccc2[nH]1` (racemic) [2-Phenyl-cyclopropane-carboxylic acid (1H-benzoimidazol-2-yl)-methyl-amide], the figure is 1000 to 10000 nM; as for `O=C(Nc1nc2c([N+](=O)[O-])cc(C(F)(F)F)cc2[nH]1)C1CC1c1ccccc1` (racemic) [2-Phenyl-cyclopropane-carboxylic acid (4-nitro-6-trifluoromethyl-1H-benzoimidazol-2-yl)-amide], 100 to 1000 nM.
As for `N#Cc1ccc2nc(NC(=O)C3C(c4ccccc4)C3(F)F)[nH]c2c1` (racemic) [2,2-Difluoro-3-phenyl-cyclopropane-carboxylic acid (6-cyano-1H-benzoimidazol-2-yl)-amide], the figure is 100 to 1000 nM.
As to `COc1ccc2[nH]c(NC(=O)C3CC3c3ccccc3)nc2c1` (racemic) [2-Phenyl-cyclopropane-carboxylic acid (5-methoxy-1H-benzoimidazol-2-yl)-amide], the IC50 lay in the range of 10 to 100 nM.
As for `O=C(Nc1nc2ccccc2[nH]1)C1CC1c1cccc(F)c1` (racemic) [2-(3-Fluoro-phenyl)-cyclopropane-carboxylic acid (1H-benzoimidazol-2-yl)-amide], the figure is 10 to 100 nM; as for `O=C(Nc1nc2ccccc2[nH]1)C1CC1c1ccc(Cl)cc1` (racemic) [2-(4-Chloro-phenyl)-cyclopropane-carboxylic acid (1H-benzoimidazol-2-yl)-amide], more than 10000 nM; as for `Nc1cccc2[nH]c(NC(=O)C3CC3c3ccccc3)nc12` (racemic) [2-Phenyl-cyclopropane-carboxylic acid (4-amino-1H-benzoimidazol-2-yl)-amide], 10 to 100 nM.
Then `N#Cc1ccc2nc(NC(=O)C3CC3c3ccccc3Cl)[nH]c2c1` (racemic) [2-(2-Chloro-phenyl)-cyclopropane-carboxylic acid (6-cyano-1H-benzoimidazol-2-yl)-amide], with 10 to 100 nM; and `Cc1cccc(C2CC2C(=O)Nc2nc3ccccc3[nH]2)c1` (racemic) [2-m-Tolyl-cyclopropane-carboxylic acid (1H-benzoimidazol-2-yl)-amide], with 10 to 100 nM.
As for `CN(C)c1ccccc1C1CC1C(=O)Nc1nc2ccccc2[nH]1` (racemic) [2-(2-Dimethylamino-phenyl)-cyclopropane-carboxylic acid (1H-benzoimidazol-2-yl)-amide], the figure is 100 to 1000 nM.
Turning to `O=C(Nc1nc2ccccc2[nH]1)C1CC1c1ccccc1C(F)(F)F` (racemic) [2-(2-Trifluoromethyl-phenyl)-cyclopropane-carboxylic acid (1H-benzoimidazol-2-yl)-amide], the IC50 was more than 10000 nM.
